From US4610987A, “Imidazoquinazolin-2-one compounds” (Daiichi Seiyaku Co., Ltd., priority 1983, dated 1986)
Structures can show the parent of a compound that is named as a salt. Where two headings read alike, the source gives them in different places.

Assays:
human platelet PDE I = human platelet PDE I (Homo sapiens, UniProt O76074); experiment: Inhibitory activity on phosphodiesterase, platelet PDE I (cGMP); type: biochemical; settings: cGMP substrate
Description: (§1) Phosphodiesterase fractions were separated from 105,000×g of supernatant fractions from human platelets and heart by DEAE-cellulose column chromatography using the method of Timothy et al. (Arch. Biochem. Biophy. 196, 465-474, 1979) with minor modifications. These fractions were designated PDE I, PDE II and PDE III, depending upon the order of their emergence from the DEAE-cellulose column.
(§2) Phosphodiesterase activity was measured by the method of Thompson and Appleman (Biochemistry 10, 311-316, 1971) with slight modifications. The reaction mixture consisted of 25 mM of Tris-HCl (pH 7.4), 5 mM of MgCl2, 1 μM of [^3 H]-cAMP or cGMP (approximate 20,000 cpm), various concentrations of a test compound and the enzyme preparation. After incubation for 10 minutes at 30° C., the reaction was terminated by boiling the reaction mixture for 45 seconds. 5'-[^3 H]-AMP or GMP formed by phosphodiesterase was converted to [^3 H]adenosine or [^3 H]quanosine by snake venom (Botherop Atrox) containing 5'-nucleotidase and the product isolated by a cation exchange resin was counted in a liquid scintillation counter.

human platelet PDE II = experiment: Inhibitory activity on phosphodiesterase, platelet PDE II (cGMP); type: biochemical; settings: cGMP substrate
Description: as §1, §2

human platelet PDE III = human platelet PDE III (Homo sapiens, UniProt Q14432); experiment: biochemical; settings: for IC50: cAMP substrate
Sequence of human platelet PDE III (Q14432 whole entry): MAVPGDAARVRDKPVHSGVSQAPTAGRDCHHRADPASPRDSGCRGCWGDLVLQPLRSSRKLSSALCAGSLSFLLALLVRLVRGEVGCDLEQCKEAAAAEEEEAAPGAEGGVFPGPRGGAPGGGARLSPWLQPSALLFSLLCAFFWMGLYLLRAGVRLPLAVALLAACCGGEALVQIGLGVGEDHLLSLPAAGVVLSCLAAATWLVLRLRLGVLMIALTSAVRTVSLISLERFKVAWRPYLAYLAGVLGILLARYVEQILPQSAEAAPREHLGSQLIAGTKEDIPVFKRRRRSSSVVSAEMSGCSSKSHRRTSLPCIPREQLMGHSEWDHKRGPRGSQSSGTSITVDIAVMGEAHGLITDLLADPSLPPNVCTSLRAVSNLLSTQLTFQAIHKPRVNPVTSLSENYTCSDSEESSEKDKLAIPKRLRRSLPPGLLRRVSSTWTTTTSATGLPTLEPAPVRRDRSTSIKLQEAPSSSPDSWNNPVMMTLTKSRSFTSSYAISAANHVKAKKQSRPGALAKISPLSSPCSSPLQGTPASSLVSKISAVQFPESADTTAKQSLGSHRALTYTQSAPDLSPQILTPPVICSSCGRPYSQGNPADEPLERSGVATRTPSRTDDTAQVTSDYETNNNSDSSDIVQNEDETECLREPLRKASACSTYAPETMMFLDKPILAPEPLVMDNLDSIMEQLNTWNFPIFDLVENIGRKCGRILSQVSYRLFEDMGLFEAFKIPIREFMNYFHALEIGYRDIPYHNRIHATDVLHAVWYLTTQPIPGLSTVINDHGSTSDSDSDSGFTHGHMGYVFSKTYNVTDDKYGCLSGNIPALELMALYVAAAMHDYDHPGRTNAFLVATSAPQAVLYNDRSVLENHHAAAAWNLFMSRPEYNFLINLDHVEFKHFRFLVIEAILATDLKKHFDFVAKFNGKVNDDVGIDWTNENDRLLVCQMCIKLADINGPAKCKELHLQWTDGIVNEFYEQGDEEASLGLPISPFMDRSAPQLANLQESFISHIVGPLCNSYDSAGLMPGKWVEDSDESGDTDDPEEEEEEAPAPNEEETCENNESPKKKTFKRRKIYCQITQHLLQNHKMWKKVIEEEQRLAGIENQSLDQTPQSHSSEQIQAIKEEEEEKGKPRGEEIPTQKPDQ
Description: as §1, §2

human heart PDE I = experiment: Inhibitory activity on phosphodiesterase, heart PDE I (cGMP); type: biochemical; settings: cGMP substrate
Description: as §1, §2

human heart PDE III = experiment: Inhibitory activity on phosphodiesterase, heart PDE III (cAMP); type: biochemical; settings: for IC50: cAMP substrate; for activity on heart PDE (in words): Table 6
Description: as §1, §2

[1] = system: platelet aggregation (rat platelet-rich-plasma); experiment: Test of Platelet Aggregation Inhibition (in vitro), rat PRP; type: cell-based, Wistar Imamichi rat; settings: for IC50: Platelet, in vitro, rat blood
Description: (§3) The test was performed as follows in accordance with the method of Ashida et al, Thrombosis and Haemostasis, Vol. 40, 542 (1979).
(§4) Blood was taken by puncture from the heart of a Wistar Imamichi rat under anesthesia with pentobarbital into a syringe containing 1/10 volume of a 3.13% aqueous solution of sodium citrate dihydrate, and the citrated blood was centrifuged to obtain a platelet-rich-plasma (PRP). In the same manner, citrated blood was collected from the vein of a healthy human who had not taken aspirin or any other anti-inflammatory agent since before 10 days, followed by centrifugation to obtain PRP. 5 μl of each test compound was added to 0.445 ml of each of these PRP samples, and the system was warmed at 30° C. for 1 minute. 50 μl of an aggregation inducer (ADP or collagen) was then added thereto, and platelet aggregation was determined according to the method of Born, Nature, Vol. 194, 927 (1962).

[2] = system: platelet aggregation (human platelet-rich-plasma); experiment: Test of Platelet Aggregation Inhibition (in vitro), human PRP; type: cell-based; settings: human blood, ADP-induced
Description: as §3, §4

platelet aggregation [3] = experiment: Test of Platelet Aggregation Inhibition (ex vivo, p.o.); type: in vivo, Wistar Imamichi rat; settings: for inhibition at 10 mg/kg: Platelet, po, ex vivo, rat, 10 mg/Kg p.o., 1 hour, *P<0.05, **P<0.01, ***P<0.001
Description: One hour later, citrated blood was taken from the heart, and platelet aggregation was determined in the same manner as described in the in vitro test. The inhibitory activity was compared with that of control and expressed in terms of percent inhibition.

circulatory system = experiment: Test of Influence on Circulatory System (blood pressure, heart beats); type: in vivo, SLC-Wistar rat; settings: rat, 50 mg/Kg p.o.
Description: 5 or 6 male normal SLC-Wistar rats per group (body weight: 205-255 g) orally received 50 mg/Kg of the test compound, and the blood pressure (tail cuff method) and the heart beats were measured with the passage of time in order to elucidate influences of the test compound on the circulatory system.

[4] = Solubility Test (water-solubility)
platelet aggregation [5] = experiment: Test of Platelet Aggregation Inhibition (ex vivo; i.v.); type: in vivo, Wistar Imamichi rat; settings: iv, 10 min, rat, i.v. 1.0 mg/Kg/min, 10 min
Description: As test animals, 5 to 6 Wistar Imamichi rats (body weight: about 260 g) that had been allowed food and water ad libitum were used per group. The test compound was dissolved in a physiological saline solution and continuously injected over a period of 10 or 15 minutes to the rats under anesthesia with pentobarbital through the femoral vein. Immediately after completion of the administration, citrated blood was collected from the heart, and platelet aggregation was determined in the same manner as in the test in vitro in Test Example 2.

[6] = system: platelet aggregation induced by B16 melanoma cells; experiment: Inhibition on Platelet Aggregation Induced by Cancer Cells (in vitro), B16; type: cell-based, C57BL/6 mouse; set-up: key: +: Aggregation was observed.; ±: Aggregation was partially inhibited.; -: No aggregation was observed
Description: (§5) It is known nowadays that platelet aggregation plays an important role in metastasis of cancers. […] Tanaka et al. The effect of the compounds of this invention to inhibit the above-described cancer cell-induced platelet aggregation was tested as follows. Cell suspensions of B16 or 3LL were prepared according to the method of Tanaka et al, Invarsion and Metastasis, Vol. 2, 289 (1982). […] Platelet aggregation of the sample system was determined according to the method of Born, and the platelet aggregation inhibitory activity was expressed by the following scale: […]

[7] = system: platelet aggregation induced by Lewis lung cancer (3LL) cells; experiment: Inhibition on Platelet Aggregation Induced by Cancer Cells (in vitro), 3LL; type: cell-based, C57BL/6 mouse; set-up: key: +: Aggregation was observed.; ±: Aggregation was partially inhibited.; -: No aggregation was observed
Description: as §5

[8] = ADP-induced, read-out: IC50, platelet aggregation inhibition in vitro, ADP
[9] = collagen-induced, read-out: IC50, platelet aggregation inhibition in vitro, Collagen
[10] = ADP, read-out: ex vivo % inhibition of platelet aggregation, ADP
[11] = collagen, read-out: ex vivo % inhibition of platelet aggregation, Collagen
[12] = ADP, *P<0.05, **P<0.01, read-out: Percent Inhibition of platelet aggregation, ADP
[13] = collagen, *P<0.05, **P<0.01, read-out: Percent Inhibition of platelet aggregation, Collagen

| SMILES | IC50 (human platelet PDE I) [nM] | IC50 (human platelet PDE II) [nM] | IC50 Ratio (PDE II) Heart/Platelet (human platelet PDE III) | IC50 (human platelet PDE III) [nM] | IC50 (human heart PDE I) [nM] | IC50 (human heart PDE III) [nM] | IC50 [1, 8] [nM] | IC50 [1, 9] [nM] | inhibition at 10 mg/kg (platelet aggregation [3]; [10]) [%] | inhibition at 10 mg/kg (platelet aggregation [3]; [11]) [%] | also measured |
| --- | --- | --- | --- | --- | --- | --- | --- | --- | --- | --- | --- |
| O=C1CN2Cc3cc(N4CCCCC4)ccc3N=C2N1 [7-Piperidino Compound, reference compound] | 93000 | 54000 | 5.3 | 150 | > 100000 | 800 |  |  |  |  |  |
| Nc1cc(-c2ccncc2)c[nH]c1=O [Amrinone, 5Amino-(3,4bipyridin)-6(1H)--one, reference compound] | > 100000 |  |  |  | > 100000 | 34000 |  |  |  |  |  |
| Cl.Cl.Nc1ccc2c(c1)CN1CC(=O)NC1=N2 [BL-7-NH2, 7-amino-1,2,3,5-tetrahydroimidazo[2,1-b]quinazolin-2-one dihydrochloride, reference compound] |  |  |  |  |  |  | 170000 | 16000 |  |  | platelet aggregation inhibitory activity (in words) [1]: scarecely exhibited platelet aggregation inhibitory activity; IC50 [2]: 50000 nM |
| Cc1cccc2c1CN1CC(=O)NC1=N2.Cl [BL-3459, 6-methyl-1,2,3,5-tetrahydroimidazo[2,1-b]quinazolin-2-one hydrochloride] |  |  |  |  |  |  | 5000 | 760 | 31 | 54 | IC50 [2]: 1700 nM; aggregation inhibitory activity in ADP- or collagen-induced aggregation (in words) (platelet aggregation [3]; orally administered, Table 2): widely varied depending on the individual animal and, therefore, cannot be regarded significant; Increase in Heart Beat (circulatory system; 1 hr, **P<0.01): 18%; Reduction in Blood Pressure (circulatory system; 1 hr, *P<0.05, **P<0.01): 23%; Increase in Heart Beat (circulatory system; 2 hr, **P<0.01): 20%; Reduction in Blood Pressure (circulatory system; 2 hr, *P<0.05, **P<0.01): 28%; Increase in Heart Beat (circulatory system; 3 hr, **P<0.01): 17%; Reduction in Blood Pressure (circulatory system; 3 hr, **P<0.01): 26%; Increase in Heart Beat (circulatory system; 5 hr, **P<0.01): 18%; Reduction in Blood Pressure (circulatory system; 5 hr, **P<0.01): 34%; Increase in Heart Beat (circulatory system; 6 hr, *P<0.05, **P<0.01): 19%; Reduction in Blood Pressure (circulatory system; 6 hr, *P<0.05, **P<0.01): 35%; Reduction in Blood Pressure (circulatory system; 24 hr, *P<0.05): 12%; solubility ([4]; tap water, pH 2): < 100 µg/mL; solubility ([4]; water, pH 4, water): < 10 µg/mL |
| Cl.O=C1CN2Cc3c(sc4c3CCCC4)N=C2N1 [DH-6471, reference compound] | > 100000 | > 100000 | 7.1 | 65 | > 10000 | 460 |  |  |  |  |  |
| CN(C)c1cccc2c1CN1CC(=O)NC1=N2 [Example 2] |  |  |  |  |  |  | 2700 | 1500 |  |  |  |
| CC1CCCCN1c1ccc2c(c1)CN1CC(=O)NC1=N2 (stereo not shown) [Example 5] | 45000 | 57000 | 2.3 | 350 | > 50000 | 800 | 2000 | 1700 |  |  | platelet aggregation inhibitory activity (in words) [1]: strong platelet aggregation inhibitory activity; activity on heart PDE (in words) (human heart PDE III): strong activity on heart PDE; water-solubility (in words) [4]: water-soluble |
| O=C1CN2Cc3ccc(N4CCOCC4)cc3N=C2N1 [Example 8] |  |  |  |  |  |  |  |  |  |  | inhibition at 1 mg/kg (platelet aggregation [5]; [12]): 16.5%; inhibition at 1 mg/kg (platelet aggregation [5]; [13]): 48.5% |
| O=C1CN2Cc3c(ccc(N4CCCCC4)c3Cl)N=C2N1 [Example 9] |  |  |  |  |  |  | 7900 | 1200 | 25 | 32 |  |
| CN(C)c1cc2c(cc1Cl)NC1=NC(=O)CN1C2 [Example 15] | 3900 | 5100 | 1.7 | 63 | > 100000 | 110 | 1100 | 440 | 28 | 49 | platelet aggregation inhibitory activity (in words) [1]: strong platelet aggregation inhibitory activity; Inhibition on platelet aggregation induced by B16 ([6]; sample concn. 0.1 μM): +; Inhibition on platelet aggregation induced by B16 ([6]; sample concn. 0.3 μM): -; Inhibition on platelet aggregation induced by B16 ([6]; sample concn. 1 μM): -; Inhibition on platelet aggregation induced by B16 ([6]; sample concn. 3 μM): -; Inhibition on platelet aggregation induced by 3LL ([7]; sample concn. 0.3 μM): ±; Inhibition on platelet aggregation induced by 3LL ([7]; sample concn. 1 μM): -; Inhibition on platelet aggregation induced by 3LL ([7]; sample concn. 3 μM): -; activity on heart PDE (in words) (human heart PDE III): strong activity on heart PDE; water-solubility (in words) [4]: water-soluble |
| O=C1CN2Cc3cc(N4CCOCC4)c(Cl)cc3N=C2N1 [Example 17] |  |  |  |  |  |  | 360 | 100 | 47 | 68 |  |
| Cc1cc2c(cc1N1CCCCC1)CN1CC(=O)NC1=N2 [Example 18] |  |  |  |  |  |  | 5400 | 580 |  |  |  |
| CN(C)c1ccc2c(c1Cl)CN1CC(=O)NC1=N2 [Example 22] | 1600 | 2900 | 1.2 | 150 | > 100000 | 180 | 7000 | 1200 | 64 | 86 | platelet aggregation inhibitory activity (in words) [1]: strong platelet aggregation inhibitory activity; inhibition at 1 mg/kg (platelet aggregation [5]; [12]): 23.5%; inhibition at 1 mg/kg (platelet aggregation [5]; [13]): 100%; activity on heart PDE (in words) (human heart PDE III): strong activity on heart PDE; water-solubility (in words) [4]: water-soluble |
| CCN(CC)c1ccc2c(c1Cl)CN1CC(=O)NC1=N2 [Example 23] |  |  |  |  |  |  | 5600 | 1300 | 25 | 70 |  |
| O=C1CN2Cc3cc(N4CCCC4)ccc3N=C2N1 [Example 26, 7-pyrrolidino-1,2,3,5-tetrahydroimidazo[2,1-b]quinazolin-2-one dihydrochloride] |  |  |  |  |  |  | 2600 | 1900 |  |  |  |
| O=C1CN2Cc3cc(N4CCOCC4)ccc3N=C2N1 [Example 28] |  |  |  |  |  |  | 5000 | 2000 |  |  |  |
